Results taken from patent US20100190688A1, “Tetrapeptide analogs” (priority 2004, published 2010).

What was measured:
BIR3 domain of rat XIAP = BIR3 domain of rat XIAP (Rattus norvegicus, UniProt Q9R0I6); experiment: Fluorescence polarization assay, binding to BIR3 from rat XIAP
Protocol: In fluorescence polarization assays a fluorescent probe is used. The binding affinity of compounds to BIR3 is measured by competitive displacement of a fluorescent probe using fluorescence polarization anisotropy. […] In other embodiments, the probe used is 6-(6-Hydroxy-3-oxo-3H-xanthen-9-yl)-N-(5-(2-methylamino-propionylamino)-6-oxo-6-[4-(1,2,3,4-tetrahydro-naphthalen-1-ylcarbamoyl)-thiazolidin-3-yl]-hexyl)-isophthalamic acid.
The binding affinity of compounds provided herein for rat BIR3 was measured by competitive displacement of a fluorescent probe using fluorescence polarization anisotropy. […] Control conditions were set up on each plate and include free probe 1 alone (5 nM), fully bound probe (5 μM BIR3+5 nM probe 1) and binding buffer blank. The-EC50 of binding was computed from a 4-parameter fit of the measured anisotropies using the SoftMax Pro 4.6 software package (Molecular Dynamics, Sunnyvale, Calif.).
Alternatively, probe 1 was substituted with probe 2: 6-(6-Hydroxy-3-oxo-3H-xanthen-9-yl)-N-{5-(2-methylamino-propionylamino)-6-oxo-6-[4-(1,2,3,4-tetrahydro-naphthalen-1-ylcarbamoyl)-thiazolidin-3-yl]-hexyl}-isophthalamic acid, for rat BIR3 and the concentrations of assay components changed. […] Controls were adjusted accordingly.

[1] = biological target: T1, BIR3-mediated Caspase-9 inhibition (UniProt Q9R0I6); experiment: Caspase-9 rescue assay (relief of BIR3-mediated Caspase-9 inhibition); format: biochemical, human Caspase-9; Rat or Chicken BIR3; settings: average EC50, substrate Ac-LEHD-amc, pH 6.5
T1 construct: Nothing is printed for this assay
Protocol: Additionally the compounds and compositions can be evaluated for their ability to achieve relief of BIR3-mediated Caspase-9 inhibition by measuring Caspase-9 reactivation. The fluorogenic substrate Ac-LEHD-7-amido-4-methylcoumarin is used in these methods. EC50 values of tested BIR3 inhibitors or Caspase-9 rescuers is calculated from the percentage of Caspase-9 reactivation in the mixtures containing serially diluted concentrations of tested compound. Typically, 10-point curves are generated for such EC50 determination.
Relief of BIR3-mediated Caspase-9 inhibition by BIR3 inhibitors was assayed by measuring Caspase-9 reactivation using the fluorogenic substrate Ac-LEHD-7-amido-4-methylcoumarin. A truncated form of human Caspase-9 that lacks the N-terminal Caspase recruitment domain (EPro-Caspase-9 or p35/p12) was used in the assay. This form of the enzyme has the full catalytic activity and the same substrate specificity as the full-length protein in the Apaf-1/Cytochrome C/dATP/Caspase-9 reconstituted system. Rat or Chicken BIR3 was used in this assay. […] This mixture was incubated for 40 min to allow equilibration at 25° C., and the assay progression was subsequently followed by monitoring the formation of fluorescent 7-amido-4-methylcoumarin over time at 460 nm using an excitation wavelength of 360 nm. […] EC50 values of tested BIR3 inhibitors or Caspase-9 rescuers were calculated from the percentage of Caspase-9 reactivation in the mixtures containing serially diluted concentrations of tested compound.

BIR3 domain of rat XIAP, sequence (Q9R0I6 241-355): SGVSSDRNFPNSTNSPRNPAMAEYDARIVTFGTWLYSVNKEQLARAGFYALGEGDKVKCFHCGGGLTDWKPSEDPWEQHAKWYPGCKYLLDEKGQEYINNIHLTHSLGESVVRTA

SMILES	EC50 (BIR3 domain of rat XIAP)	EC50 [1]
CNC(C)C(=O)NC1CCc2cccc3c2N(C1=O)C(C(=O)NC1CCCc2ccccc21)C3 (stereo not drawn) [5-(2-Methylamino-propionylamino)-4-oxo-1,2,4,5,6,7-hexahydro-azepino[3,2,1-hi]indole-2-carboxylic ′acid (1,2,3,4-tetrahydro-naphthalen-1-yl)-amide]	< 1 µM	1 to 10 µM
CNC(C)C(=O)NC(C(=O)N(CCCCCNC(=O)OCc1ccccc1)CC(=O)NC1CCCc2ccccc21)C(C)C (stereo not drawn) [(5-{[3-Methyl-2-(2-methylamino-propionylamino)-butyryl]-[(1,2,3,4-tetrahydro-naphthalen-1-ylcarbamoyl)-methyl]-amino}-pentyl)-carbamic acid benzyl ester]	< 1 µM	1 to 10 µM
CC(NCC1CC1)C(=O)NC(C(=O)N1CCCC1C(=O)NC1CCCc2ccccc21)C(C)(C)C (stereo not drawn) [1-{2-[2-(Cyclopropylmethyl-amino)-propionylamino]-3,3-dimethyl-butyryl}-pyrrolidine-2-carboxylic acid (1,2,3,4-tetrahydro-naphthalen-1-yl)-amide]	< 1 µM	1 to 10 µM
CNC(C)C(=O)NC(C(=O)NC(CCCCNS(C)(=O)=O)C(=O)NC1CCCc2ccccc21)C(C)C (stereo not drawn) [6-Methanesulfonylamino-2-[3-methyl-2-(2-methylamino-propionylamino)-butyrylamino]-hexanoic acid (1,2,3,4-tetrahydro-naphthalen-1-yl)-amide]	< 1 µM	< 1 µM
CCCNC(C)C(=O)NC(C(=O)N1CCCC1C(=O)NC1CCCc2ccccc21)C(C)(C)C (stereo not drawn) [1-[3,3-Dimethyl-2-(2-propylamino-propionylamino)-butyryl]-pyrrolidine-2-carboxylic acid (1,2,3,4-tetrahydro-naphthalen-1-yl)-amide]	< 1 µM	1 to 10 µM
CC(C)CNC(C)C(=O)NC(C(=O)N1CCCC1C(=O)NC1CCCc2ccccc21)C(C)(C)C (stereo not drawn) [1-[2-(2-Isobutylamino-propionylamino)-3,3-dimethyl-butyryl]-pyrrolidine-2-carboxylic acid (1,2,3,4-tetrahydro-naphthalen-1-yl)-amide]	< 1 µM	1 to 10 µM
CNC(C)C(=O)NC(C(=O)N1CSC(C)(C)C1C(=O)NC1CCCc2ccccc21)C(C)C (stereo not drawn) [5,5-Dimethyl-3-[3-methyl-2-(2-methylamino-propionylamino)-butyryl]-thiazolidine-4-carboxylic acid (1,2,3,4-tetrahydro-naphthalen-1-yl)-amide]	< 1 µM	< 1 µM
CN[C@@H](C)C(=O)N[C@H](C(=O)N[C@@H](CCCCNS(=O)(=O)c1ccc(C)cc1)C(=O)NC1CCCc2ccccc21)C(C)C (stereo in doubt) [2-[3-Methyl-2-(2-methylamino-propionylamino)-butyrylamino]-6-(toluene-4-sulfonylamino)-hexanoic acid (1,2,3,4-tetrahydro-naphthalen-1-yl)-amide]	< 1 µM	< 1 µM
CN[C@@H](C)C(=O)N[C@H]1CCCN2CC[C@@H](C(=O)N[C@@H]3CCCc4ccccc43)N2C1=O [8-(2-Methylamino-propionylamino)-9-oxo-hexahydro-pyrazolo[1,2-a][1,2]diazepine-1-carboxylic acid (1,2,3,4-tetrahydro-naphthalen-1-yl)-amide]	< 1 µM	1 to 10 µM
CCCCCN1C(=O)CCC(NC(=O)C(C)NC)C(=O)N1CC(=O)NC1CCCc2ccccc21 (stereo not drawn) [N-{3,7-Dioxo-1-pentyl-2-[(1,2,3,4-tetrahydro-naphthalen-1-ylcarbamoyl)-methyl]-[1,2]diazepan-4-yl}-2-methylamino-propionamide]	1 to 10 µM	> 10 µM
CNC(C)C(=O)NC(C(=O)NC(CCCCNS(=O)(=O)C(F)(F)F)C(=O)NC1CCCc2ccccc21)C(C)C (stereo not drawn) [2-[3-Methyl-2-(2-methylamino-propionylamino)-butyrylamino]-6-trifluoromethanesulfonylamino-hexanoic acid (1,2,3,4-tetrahydro-naphthalen-1-yl)-amide]	< 1 µM	> 10 µM
CNC(C)C(=O)NC(C(=O)NC(CCCCNC(C)=O)C(=O)NC1CCCc2ccccc21)C(C)C (stereo not drawn) [6-Acetylamino-2-[3-methyl-2-(2-methylamino-propionylamino)-butyrylamino]-hexanoic acid (1,2,3,4-tetrahydro-naphthalen-1-yl)-amide]	< 1 µM	1 to 10 µM

Other lines, results leading:

EC50 (BIR3 domain of rat XIAP)	EC50 [1]	SMILES
< 1 µM	< 1 µM	CNC(C)C(=O)NC(C(=O)N1CSCC1C(=O)NN(Cc1ccccc1)Cc1ccccc1)C(C)C (stereo not drawn) [N-{1-[4-(N′,N′-Dibenzyl-hydrazinocarbonyl)-thiazolidine-3-carbonyl]-2-methyl-propyl}-2-methylamino-propionamide]
< 1 µM	< 1 µM	CNC(C)C(=O)NC(C(=O)N1Cc2ccccc2CC1C(=O)NC1CCCc2ccccc21)C(C)C (stereo not drawn) [2-[3-Methyl-2-(2-methylamino-propionylamino)-butyryl]-1,2,3,4-tetrahydro-isoquinoline-3-carboxylic acid (1,2,3,4-tetrahydro-naphthalen-1-yl)-amide]
< 1 µM	1 to 10 µM	CNC(C)C(=O)NC(C(=O)N1Cc2ccccc2CC1C(=O)NC(c1ccccc1)c1ccccc1)C(C)C (stereo not drawn) [2-[3-Methyl-2-(2-methylamino-propionylamino)-butyryl]-1,2,3,4-tetrahydro-isoquinoline-3-carboxylic acid benzhydryl-amide]
< 1 µM	1 to 10 µM	CNC(C)C(=O)NC(C(=O)NC(CCC(=O)OCc1ccccc1)C(=O)NC1CCCc2ccccc21)C(C)C (stereo not drawn) [4-[3-Methyl-2-(2-methylamino-propionylamino)-butyrylamino]-4-(1,2,3,4-tetrahydro-naphthalen-1-ylcarbamoyl)-butyric acid benzyl ester]
< 1 µM	1 to 10 µM	CNC(C)C(=O)NC(C(=O)NC(CCOCc1ccccc1)C(=O)NC1CCCc2ccccc21)C(C)C (stereo not drawn) [N-[3-Benzyloxy-1-(1,2,3,4-tetrahydro-naphthalen-1-ylcarbamoyl)-propyl]-3-methyl-2-(2-methylamino-propionylamino)-butyramide]
< 1 µM	1 to 10 µM	CNC(C)C(=O)NC(C(=O)N1Cc2ccccc2CC1C(=O)NC(Cc1ccccc1)Cc1ccccc1)C(C)C (stereo not drawn) [2-[3-Methyl-2-(2-methylamino-propionylamino)-butyryl]-1,2,3,4-tetrahydro-isoquinoline-3-carboxylic acid (1-benzyl-2-phenyl-ethyl)-amide]
< 1 µM	1 to 10 µM	CNC(C)C(=O)NC(C(=O)NC(COCc1ccccc1)C(=O)NC1CCCc2ccccc21)C(C)C (stereo not drawn) [N-[2-Benzyloxy-1-(1,2,3,4-tetrahydro-naphthalen-1-ylcarbamoyl)-ethyl]-3-methyl-2-(2-methylamino-propionylamino)-butyramide]
< 1 µM	< 1 µM	CNC(C)C(=O)NC(C(=O)N1CSCC1C(=O)NC1CCCc2ccccc21)C(C)C (stereo not drawn) [3-[3-Methyl-2-(2-methylamino-propionylamino)-butyryl]-thiazolidine-4-carboxylic acid (1,2,3,4-tetrahydro-naphthalen-1-yl)-amide]
> 10 µM	> 10 µM	CNC(C)C(=O)NC(C(=O)N1Cc2ccccc2CC1C(=O)NN(c1ccccc1)c1ccccc1)C(C)C (stereo not drawn) [N-{1-[3-N′,N′-Diphenyl-hydrazinocarbonyl)-3,4-dihydro-1H-isoquinoline-2-carbonyl]-2-methyl-propyl}-2-methylamino-propionamide]
